Measurements: PubChem BioAssay (NCI)
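Where inhibition never reached the appropriate level, the endpoint shown equals the highest concentration tested. Otherwise, values were interpolated linearly from a five-concentration, 48-hour dose response in 96-well plates. TGI denotes the concentration required for complete inhibition of growth.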

Columns and labels:
Experiment in all cases: NCI-60 cell line screen, 48 h
HCT-116 colon = test system: HCT-116 colon
SK-MEL-2 melanoma = test system: SK-MEL-2 melanoma
A549 NSCLC = test system: A549 NSCLC
NCI-H226 lung = test system: NCI-H226 lung
MDA-MB-231 breast = test system: MDA-MB-231 breast
M14 melanoma = test system: M14 melanoma
786-0 renal = test system: 786-0 renal
OVCAR-4 ovarian = test system: OVCAR-4 ovarian
HT29 colon = test system: HT29 colon
OVCAR-5 ovarian = test system: OVCAR-5 ovarian
SK-OV-3 ovarian = test system: SK-OV-3 ovarian
IGROV1 ovarian = test system: IGROV1 ovarian
SF-295 CNS = test system: SF-295 CNS
MCF7 breast = test system: MCF7 breast
HOP-62 NSCLC = test system: HOP-62 NSCLC
RXF 393 renal = test system: RXF 393 renal
UO-31 renal = test system: UO-31 renal
HL-60(TB) leukemia = test system: HL-60(TB) leukemia
SK-MEL-5 melanoma = test system: SK-MEL-5 melanoma
SR leukemia = test system: SR leukemia
HCC-2998 colon = test system: HCC-2998 colon
CAKI-1 renal = test system: CAKI-1 renal
NCI-H23 lung = test system: NCI-H23 lung
OVCAR-3 ovarian = test system: OVCAR-3 ovarian
SNB-75 CNS = test system: SNB-75 CNS
HS 578T breast = test system: HS 578T breast
SW-620 colon = test system: SW-620 colon
U251 CNS = test system: U251 CNS
SF-539 CNS = test system: SF-539 CNS
RPMI-8226 leukemia = test system: RPMI-8226 leukemia
EKVX NSCLC = test system: EKVX NSCLC
ACHN renal = test system: ACHN renal
HCT-15 colon = test system: HCT-15 colon
SF-268 CNS = test system: SF-268 CNS
HOP-92 NSCLC = test system: HOP-92 NSCLC
BT-549 breast = test system: BT-549 breast
OVCAR-8 ovarian = test system: OVCAR-8 ovarian
UACC-62 melanoma = test system: UACC-62 melanoma
PC-3 prostate = test system: PC-3 prostate
NCI/ADR-RES ovarian = test system: NCI/ADR-RES ovarian
TK-10 renal = test system: TK-10 renal
KM12 colon = test system: KM12 colon
SNB-19 CNS = test system: SNB-19 CNS
CCRF-CEM leukemia = test system: CCRF-CEM leukemia
SK-MEL-28 melanoma = test system: SK-MEL-28 melanoma
MOLT-4 leukemia = test system: MOLT-4 leukemia
MDA-MB-435 = test system: MDA-MB-435
MALME-3M melanoma = test system: MALME-3M melanoma
K-562 leukemia = test system: K-562 leukemia
NCI-H460 lung = test system: NCI-H460 lung
UACC-257 melanoma = test system: UACC-257 melanoma
NCI-H522 lung = test system: NCI-H522 lung
COLO 205 colon = test system: COLO 205 colon

Measured: TGI

O=S(=O)(O)c1cc(N=Nc2c(O)ccc3ccccc23)c2c(S(=O)(=O)O)cccc2c1
> 100 µM: HCT-116 colon | SK-MEL-2 melanoma | A549 NSCLC | NCI-H226 lung | MDA-MB-231 breast | M14 melanoma | 786-0 renal | OVCAR-4 ovarian | HT29 colon | OVCAR-5 ovarian | SK-OV-3 ovarian | IGROV1 ovarian | SF-295 CNS | MCF7 breast | HOP-62 NSCLC | RXF 393 renal | UO-31 renal | HL-60(TB) leukemia | SK-MEL-5 melanoma | SR leukemia | HCC-2998 colon | CAKI-1 renal | NCI-H23 lung | OVCAR-3 ovarian | SNB-75 CNS | HS 578T breast | SW-620 colon | U251 CNS | SF-539 CNS | RPMI-8226 leukemia | EKVX NSCLC | ACHN renal | HCT-15 colon | SF-268 CNS | HOP-92 NSCLC | BT-549 breast | OVCAR-8 ovarian | UACC-62 melanoma | PC-3 prostate | NCI/ADR-RES ovarian | TK-10 renal | KM12 colon | SNB-19 CNS | CCRF-CEM leukemia | SK-MEL-28 melanoma | MOLT-4 leukemia | MDA-MB-435 | MALME-3M melanoma | K-562 leukemia | NCI-H460 lung | UACC-257 melanoma | NCI-H522 lung | COLO 205 colon

O=S(=O)(O)c1ccc(N=Nc2ccc(N=Nc3c(O)ccc4ccccc34)c(S(=O)(=O)O)c2)cc1
> 100 µM: HCT-116 colon | SK-MEL-2 melanoma | A549 NSCLC | NCI-H226 lung | MDA-MB-231 breast | M14 melanoma | 786-0 renal | HT29 colon | OVCAR-5 ovarian | SK-OV-3 ovarian | IGROV1 ovarian | SF-295 CNS | MCF7 breast | HOP-62 NSCLC | RXF 393 renal | UO-31 renal | HL-60(TB) leukemia | SK-MEL-5 melanoma | SR leukemia | HCC-2998 colon | CAKI-1 renal | NCI-H23 lung | OVCAR-3 ovarian | SNB-75 CNS | HS 578T breast | SW-620 colon | U251 CNS | SF-539 CNS | RPMI-8226 leukemia | EKVX NSCLC | ACHN renal | HCT-15 colon | SF-268 CNS | HOP-92 NSCLC | BT-549 breast | OVCAR-8 ovarian | UACC-62 melanoma | PC-3 prostate | NCI/ADR-RES ovarian | TK-10 renal | KM12 colon | SNB-19 CNS | CCRF-CEM leukemia | SK-MEL-28 melanoma | MOLT-4 leukemia | MDA-MB-435 | MALME-3M melanoma | K-562 leukemia | NCI-H460 lung | UACC-257 melanoma | NCI-H522 lung | COLO 205 colon
